Reference: the supplement of paper PMC11061612

Legend:
[1] = test system: JVM-3 (B-Cell Non-Hodgkin's Lymphoma); assay: combination Emax (second highest fraction inhibited in the dose matrix, 72 h); higher = more inhibition; extreme values may be limits of the assay
How it was run: (§1)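 Bliss excess equals the observed combination effect minus the expected value EA + EB − EA·EB, where EA and EB are the effects of each agent alone. Combination Emax is the second-highest inhibition within the matrix. Inhibition was scaled from CellTiter-Glo 2.0 luminescence, with 0 set by vehicle wells and 1 by blank wells, after 72 hours of two-drug dosing of cells plated in 1536-well plates.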

UACC-62 (Melanoma) = assay: Bliss excess, mean over the matrix (fraction); higher = more synergy
How it was run: as §1

TGW (Neuroblastoma) = assay: as above
How it was run: as §1

[2] = test system: JVM-3 (B-Cell Non-Hodgkin's Lymphoma); assay: as above
How it was run: as §1

C=CCn1c(=O)c2cnc(Nc3ccc(N4CCN(C)CC4)cc3)nc2n1-c1cccc(C(C)(C)O)n1 [AZD1775] + C[C@@H]1COCCN1C2=NC(=NC(=C2)C3(CC3)[S@](=N)(=O)C)C4=C5C=CNC5=NC=C4 [AZD6738] (first compound max 1 µM, partner max 10 µM)
combination Emax [1]: 0.876 | Bliss excess (UACC-62 (Melanoma)): 0.0163 | Bliss excess (TGW (Neuroblastoma)): 0.0606 | Bliss excess [2]: -0.0178
